Test results from patent US8110654B2, “T cell epitope peptides of ovarian cancer anti-idiotypic antibody 6B11 and use thereof” (Peking University People;s Hospital, priority 2006, dated 2012).

Columns and labels:
CD4 T cells = test: BrdU cell proliferation assay after magnetic bead sorting of CD4 T cells; format: cell-based, human; conditions: reacting cells sorted for CD4 T cells by magnetic beads
Procedure: All the CDR peptides of anti-idiotype antibody 6B11 (6 peptides) were synthesized artificially. The peptides were screened for Th epitope peptides by cell proliferation assay. Anti-idiotype antibody 6B11-CTLs stimulated for one period were used as reacting cells. DCs loaded with anti-idiotype antibodies and peptides respectively were used as stimulating cells. The reacting cells and the stimulating cells (in the ratio of 10:1) were co-incubated at 37° C. under 5% CO2 for 120 hours and then subject to BrdU ELISA cell proliferation assay. Each well contained 100 μl AIM-V culture medium and 1×10^5 anti-idiotype antibody 6B11-CTLs. Within the last 2 hours during stimulation, 10 μl BrdU labeling solution was added into each well and the fluid in the wells was removed. The cells were dried at 60° C. for 1 hour. 200 μl of FixDenat solution was added into each well. The reaction continued for 30 minutes at 37° C. for fixing DNA in the lymphocytes. Finally, 100 μl BrdU monoclonal antibody was added into each well for 90 minutes. The absorption value at 450 nm was read by an automatic microplate reader after substrate chromogenic reaction for detecting the proliferation of the cells. The group of DCs without loading and the group of phytohaemagglutinin (PHA) were used as negative and positive control respectively. […] Other peptides could not stimulate the proliferation of the reacting cells.
For further analyzing the proliferation of the cells, stimulating cells were blocked by anti-human MHC class II antibodies, for evaluating the effect of Th epitope peptides. Firstly, the optimal application concentration of MHC class II antibodies was determined by experiments to be 1:20 dilution (FIG. 3). […] Other peptides could not trigger cell proliferation, no matter whether MHC class II antibodies were applied or not (FIG. 4). […] The reacting cells were subject to magnetic bead sorting of CD4 T cells.

[1] = system: anti-idiotype antibody 6B11-CTLs (reacting cells); test: BrdU ELISA cell proliferation assay, 6B11-CTLs stimulated by loaded DCs; format: cell-based, human
Procedure: Peripheral blood was drawn from HLA-A2 healthy human subjects. After EDTA anti-coagulation treatment, peripheral blood monocytes were isolated using Ficoll lymphocyte isolation 1×10^7 monocytes/well and AIM-V culture medium (containing 5% human AB serum) was added to 1 ml. The cells were incubated at 37° C. under 5% CO2 for 2 hours. Non-adherent cells were drawn and removed as lymphocytes and stored in liquid nitrogen for further use. The adherent cells were monocytes.
The monocytes isolated from said 6-well plates were added with 2 ml AIM-V culture medium (containing 5% human AB serum)/well. Recombinant human granulocyte-macrophage colony-stimulating factor (rh GM-CSF) and recombinant human interleukin-4 (rh IL-4) were added simultaneously both to a final concentration of 1000 U/ml, for induced incubation. On Day 4, 1 ml AIM-V culture medium (containing 5% human AB serum) was supplemented, and rh GM-CSF and rh IL-4 of the same concentration as mentioned above were also supplemented. On Day 6, 1 ml AIM-V culture medium (containing 5% human AB serum) was supplemented again. At the same time, recombinant human tumor necrosis factor-α (rh TNF-α), recombinant human α-interferon (rh IFN-α) and recombinant human interleukin-6 (rh IL-6) were added, all to a final concentration of 1000 U/ml, and prostaglandin E2 (PGE2) was added to a final concentration of 1 μg/ml. Co-incubation lasted 24 hours for inducing mature DCs.
On Day 4 during incubation of DCs, the culture medium, rh GM-CSF and rh IL-4 were supplemented. At the same time, anti-idiotype antibody 6B11 was added to a final concentration of 40 μg/ml for loading. The loaded cells were stored as stimulating cells for further use.
Mature DCs induced were harvested, washed and adjusted to a concentration of 1×10^6 cells/ml. Six CDR peptides (SEQ ID NOs: 1-6, see Table 1, artificially synthesized) in a final concentration of 30 μg/ml respectively, or each peptide of 30 μg/ml together with keyhole limpet hemocyanin (KLH) of 5 μg/ml were added for loading. The loaded cells were stored as stimulating cells for further use.
The freeze-stored autologous lymphocytes were stimulated by DCs loaded with anti-idiotype antibody 6B11 (anti-Id DCs), to obtain CTLs specific to anti-idiotype antibody 6B11 (6B11-CTLs). One period consists of 7 days. On Day 3 of every period, 10 U/ml recombinant human interleukin-2 (rh IL-2) was supplemented. Finally, anti-idiotype antibody 6B11-CTLs were obtained after a one- or three-period stimulation.
All the CDR peptides of anti-idiotype antibody 6B11 (6 peptides) were synthesized artificially. The peptides were screened for Th epitope peptides by cell proliferation assay. Anti-idiotype antibody 6B11-CTLs stimulated for one period were used as reacting cells. DCs loaded with anti-idiotype antibodies and peptides respectively were used as stimulating cells. The reacting cells and the stimulating cells (in the ratio of 10:1) were co-incubated at 37° C. under 5% CO2 for 120 hours and then subject to BrdU ELISA cell proliferation assay. Each well contained 100 μl AIM-V culture medium and 1×10^5 anti-idiotype antibody 6B11-CTLs. Within the last 2 hours during stimulation, 10 μl BrdU labeling solution was added into each well and the fluid in the wells was removed. The cells were dried at 60° C. for 1 hour. 200 μl of FixDenat solution was added into each well. The reaction continued for 30 minutes at 37° C. for fixing DNA in the lymphocytes. Finally, 100 μl BrdU monoclonal antibody was added into each well for 90 minutes. The absorption value at 450 nm was read by an automatic microplate reader after substrate chromogenic reaction for detecting the proliferation of the cells. The group of DCs without loading and the group of phytohaemagglutinin (PHA) were used as negative and positive control respectively. […] Other peptides could not stimulate the proliferation of the reacting cells. […]

HLA-A2 = HLA-A2 (Homo sapiens, UniProt P04439, D140Y/D185E/D98H/E176V/E277Q/G131W/G231S/I119V/I121R/I166T/I218V/L300P/L318F/N151K/N90K/P208A/P217A/Q86G/Q94H/R138H/R169H/T345S); test: T2 cell binding assay (HLA class I expression on T2 cells, confocal microscopy); format: cell-based; conditions: for binding capacity in T2 cell binding assay (in words): T2 cells co-incubated with peptide 24 hours; for T2 binding: T2 cells co-incubated with peptide (0.3, 3, 30 μg/ml) 24 hours, HLA class I surface expression; as to T2 binding: key: +++: high binding capacity; ++: moderate binding capacity; +: low binding capacity
Procedure: The peptides obtained by […] method and the VH CDR1 and VL CDR2 region peptides were subject to T2 cell binding assay. T2 cells were co-incubated with each peptides in different concentrations (0.3 μg/ml, 3 μg/ml and 30 μg/ml) for 24 hours and then co-incubated with anti-human MHC class I antibodies. The expression profile of HLA class I molecules on the surface of T2 cells was analyzed by confocal microscopy. […] They were synthesized together with the CDR peptides of the anti-idiotype antibody for screening CTL epitope peptides.

Substance	proliferation of sorted CD4 T cells (CD4 T cells)	proliferation after blocking by MHC class II antibodies ([1]; anti-human MHC class II antibodies 1:20 dilution)	proliferation of reacting cells 6B11-CTLs ([1]; stimulating DCs loaded with peptide 30 μg/ml or 6B11 40 μg/ml, 120 hours, BrdU, A450)	binding capacity in T2 cell binding assay (in words) (HLA-A2)	T2 binding (HLA-A2)
phytohaemagglutinin [PHA, reference compound]	could trigger the proliferation	blocked dramatically	significant proliferation	–	–
VHSNGNTYL [predicted 9-mer from VL CDR1]	–	–	–	low binding capacity	+
IALITTKIA [predicted 9-mer from VH CDR3]	–	–	–	low binding capacity	+
NNKYYNTAL [predicted 9-mer from VH CDR2]	–	–	–	high binding capacity	+++
LITTKIAWY [predicted 9-mer from VH CDR3]	–	–	–	low binding capacity	+
